# Where two headings read alike, the source gives them in different places. Marks after values point to notes of the source that are not given here.
# System: established Adjuvant-induced arthritis in rats
# Assay: Established adjuvant-induced arthritis in rats (therapeutic dosing schedule)
# Type: in vivo, rat
# Conditions: for ED50: Rattus norvegicus, read-out: Estimated ED50
# From the text: Adjuvant arthritis can be treated using two different dosing schedules; either starting at the time of immunization with adjuvant (prophylactic dosing) or from day 15 when the arthritic response is already established (therapeutic dosing). It is more difficult to inhibit adjuvant arthritis with the therapeutic dosing schedule as compared to the prophylactic schedule. Both versions of adjuvant arthritis are, however, extremely sensitive to the effects of both non-selective COX inhibitors and COX 2 selective inhibitors where 70-90% inhibition of swelling can be achieved at appropriate doses. These models may be predictive for some of the processes thought to be relevant in rheumatoid arthritis.
# Method: Female Wistar rats weighing 150-170 g (housed in standard conditions, 5 animals per cage, with food and water ad libitum) are injected i.d. at the base of the tail with 0.1 ml of mineral oil containing 0.6 mg of lyophilized heat-killed Mycobacterium tuberculosis. The rats are treated orally with COMPOUND A or placebo formulation from day 15 to day 22 (therapeutic dosing schedule) or with COMPOUND A from day 0 to day 14 after immunization (prophylactic dosing schedule). At the end of the experiment, the swelling of the tarsal joints is measured by means of a micro-caliper. For the comparison study to Diclofenac both compounds are given from day 15 to day 29 with readouts at day 22 and 29. Percentage inhibition of paw swelling is calculated by reference to placebo treated arthritic animals (0% inhibition) and placebo treated normal animals (100% inhibition). Five animals are used per group. Data are analyzed using Kruskal-Wallis non-parametric ANOVA followed by Dunn's Multiple Comparison test.
# [1] = 0.3 mg/kg/day p.o., 7 day treatment (Table 7)
# [2] = 1 mg/kg/day p.o., 7 day treatment (Table 7)
# [3] = 1.25 mg/kg/day p.o., 7 days treatment, readout day 22 (Table 8)
# [4] = 1.25 mg/kg/day p.o., 14 days treatment, readout day 29 (Table 8)
# [5] = 2.5 mg/kg/day p.o., 7 days treatment, readout day 22 (Table 8)
# [6] = 2.5 mg/kg/day p.o., 14 days treatment, readout day 29 (Table 8)
# [7] = 3 mg/kg/day p.o., 7 day treatment (Table 7)
# [8] = 5 mg/kg/day p.o., 7 days treatment, readout day 22 (Table 8)
smiles,measurement,setting,value
"COC1=Nc2cc(Cl)ccc2/C(=C/C(=O)O)c2sc(Cl)cc21 [COMPOUND A, [2,7-Dichloro-10-methoxy-3-thia-9-aza-benzo[f]azulen-(4Z)-ylidene]-acetic acid]",% inhibition,[1],15.8 * %
same,Swelling (mm) ± S.D.,[1],6.79 ± 0.9 mm
same,% inhibition,[2],39.0 * %
same,Swelling (mm) ± S.D.,[2],4.92 ± 0.63 mm
same,% inhibition,[3],51.0 * %
same,Swelling (mm) ± S.D.,[3],4.22 ± 0.57 mm
same,% inhibition,[4],60.3 * %
same,Swelling (mm) ± S.D.,[4],3.06 ± 0.63 mm
same,% inhibition,[5],60.5 * %
same,Swelling (mm) ± S.D.,[5],3.40 ± 0.92 mm
same,% inhibition,[6],62.0 * %
same,Swelling (mm) ± S.D.,[6],2.93 ± 0.80 mm
same,% inhibition,[7],45.0 * %
same,Swelling (mm) ± S.D.,[7],4.41 ± 0.59 mm
same,% inhibition,[8],65.0 * %
same,Swelling (mm) ± S.D.,[8],2.94 ± 1.28 mm
same,Swelling (mm) ± S.D.,"5 mg/kg/day p.o., 14 days treatment, readout day 29 (Table 8)",2.23 ± 0.66 mm
same,Swelling (mm) ± S.D.,"9 mg/kg/day p.o., 7 day treatment (Table 7)",2.84 ± 0.73 mm
same,ED50,"336 h, 2 week treatment schedule",< 1.25 mg/kg
same,ED50,"po, 168 h, p.o., one week treatment schedule",≤ 1.25 mg/kg

# Source: patent publication US8258128B2, “Organic compounds” (Novartis AG, priority 2006, dated 2012)
